Laboratory results taken from ChEMBL document CHEMBL3046945, “Enantioselective Antifungal Activity of Pefurazoate against Pathogens of Rice Seed Diseases” (J Pestic Sci, 2001).

What was measured:
Fusarium fujikuroi [1] = test: Antifungal activity against benzimidazole-sensitive Fusarium fujikuroi assessed as diameter of mycelial colony after 3 to 4 days by agar dilution method; type: functional, organism-based
Bipolaris oryzae = test: Antifungal activity against Bipolaris oryzae assessed as diameter of mycelial colony after 3 to 4 days by agar dilution method; type: functional, organism-based
Fusarium fujikuroi [2] = test: Inhibition of ergosterol biosynthesis in benzimidazole-sensitive Fusarium fujikuroi assessed as incorporation of [2-14C] acetate into ergosterol at 0.24 ppm by autoradiography; type: functional
Fusarium fujikuroi [3] = test: Inhibition of ergosterol biosynthesis in benzimidazole-sensitive Fusarium fujikuroi assessed as incorporation of [2-14C] acetate into 24-methylenedihydrolanosterol at 0.24 ppm by autoradiography; type: functional
Pyricularia oryzae = test: Antifungal activity against Magnaporthe oryzae assessed as diameter of mycelial colony after 3 to 4 days by agar dilution method; type: functional, organism-based
Fusarium fujikuroi [4] = test: Inhibition of ergosterol biosynthesis in benzimidazole-sensitive Fusarium fujikuroi assessed as incorporation of [2-14C] acetate into total lipids at 0.24 ppm by autoradiography; type: functional
Fusarium fujikuroi [5] = test: Inhibition of ergosterol biosynthesis in benzimidazole-sensitive Fusarium fujikuroi assessed as incorporation of [2-14C] acetate into lipid fraction at 0.24 ppm by autoradiography; type: functional
Fusarium fujikuroi [6] = test: Inhibition of ergosterol biosynthesis in benzimidazole-sensitive Fusarium fujikuroi assessed as incorporation of [2-14C] acetate into 24-methylenedihydrolanosterol at 7.35 ppm by autoradiography; type: functional
Fusarium fujikuroi [7] = test: Inhibition of ergosterol biosynthesis in benzimidazole-sensitive Fusarium fujikuroi assessed as incorporation of [2-14C] acetate into ergosterol at 7.35 ppm by autoradiography; type: functional
Fusarium fujikuroi [8] = test: Inhibition of ergosterol biosynthesis in benzimidazole-sensitive Fusarium fujikuroi assessed as incorporation of [2-14C] acetate into lipid fraction at 7.35 ppm by autoradiography; type: functional
Fusarium fujikuroi [9] = test: Inhibition of ergosterol biosynthesis in benzimidazole-sensitive Fusarium fujikuroi assessed as incorporation of [2-14C] acetate into total lipids at 7.35 ppm by autoradiography; type: functional

SMILES	EC50 (Fusarium fujikuroi [1])	EC50 (Bipolaris oryzae)	inhibition at 0.24 ppm (Fusarium fujikuroi [2])	inhibition at 0.24 ppm (Fusarium fujikuroi [3])	EC50 (Pyricularia oryzae)	inhibition at 0.24 ppm (Fusarium fujikuroi [4])	inhibition at 0.24 ppm (Fusarium fujikuroi [5])	inhibition at 7.35 ppm (Fusarium fujikuroi [6])	inhibition at 7.35 ppm (Fusarium fujikuroi [7])	inhibition at 7.35 ppm (Fusarium fujikuroi [8])	inhibition at 7.35 ppm (Fusarium fujikuroi [9])
C=CCCCOC(=O)[C@H](CC)N(Cc1ccco1)C(=O)n1ccnc1 [(S)-(-)-pefurazoate]	0.24 ppm	0.41 ppm	1.3%	13.9%	0.61 ppm	1.3%	84.8%				
C=CCCCOC(=O)C(CC)N(Cc1ccco1)C(=O)n1ccnc1 (racemic) [Pefurazoate]	0.49 ppm	0.84 ppm			0.89 ppm						
C=CCCCOC(=O)[C@@H](CC)N(Cc1ccco1)C(=O)n1ccnc1 [(R)-(+)-pefurazoate]	7.35 ppm	3.89 ppm			3.21 ppm			14.2%	1.3%	84.5%	1.6%
